Test results: patent publication US20210261512A1, “NOVEL COMPOUNDS” (INFLAZOME LIMITED, priority 2018, published 2021)

Biological target: NLRP3 (Homo sapiens, UniProt Q96P20)
Experiment: THP-1 cells pyroptosis assay
Type: cell-based
Parameters: Seed THP-1 cells (25,000 cells/well) containing 1.0 μg/ml LPS; host or cells: THP-1
Conditions: LPS 1.0 μg/ml, nigericin 5 μM, resazurin readout, 10 μM top dose (Example 2: top dose of 30 μM)
Summary of the method: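 Pyroptosis induced by 5 μM nigericin (1 h) in LPS-primed (1 μg/ml) THP-1 cells, 25,000/well in serum-free RPMI, after 3 h compound pre-treatment (8 points, 10 μM top unless stated). Surviving cells measured with 100 μM resazurin, Ex 560/Em 590; IC50 via variable-slope 4-parameter regression.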

Chain of NLRP3 (Q96P20 whole entry): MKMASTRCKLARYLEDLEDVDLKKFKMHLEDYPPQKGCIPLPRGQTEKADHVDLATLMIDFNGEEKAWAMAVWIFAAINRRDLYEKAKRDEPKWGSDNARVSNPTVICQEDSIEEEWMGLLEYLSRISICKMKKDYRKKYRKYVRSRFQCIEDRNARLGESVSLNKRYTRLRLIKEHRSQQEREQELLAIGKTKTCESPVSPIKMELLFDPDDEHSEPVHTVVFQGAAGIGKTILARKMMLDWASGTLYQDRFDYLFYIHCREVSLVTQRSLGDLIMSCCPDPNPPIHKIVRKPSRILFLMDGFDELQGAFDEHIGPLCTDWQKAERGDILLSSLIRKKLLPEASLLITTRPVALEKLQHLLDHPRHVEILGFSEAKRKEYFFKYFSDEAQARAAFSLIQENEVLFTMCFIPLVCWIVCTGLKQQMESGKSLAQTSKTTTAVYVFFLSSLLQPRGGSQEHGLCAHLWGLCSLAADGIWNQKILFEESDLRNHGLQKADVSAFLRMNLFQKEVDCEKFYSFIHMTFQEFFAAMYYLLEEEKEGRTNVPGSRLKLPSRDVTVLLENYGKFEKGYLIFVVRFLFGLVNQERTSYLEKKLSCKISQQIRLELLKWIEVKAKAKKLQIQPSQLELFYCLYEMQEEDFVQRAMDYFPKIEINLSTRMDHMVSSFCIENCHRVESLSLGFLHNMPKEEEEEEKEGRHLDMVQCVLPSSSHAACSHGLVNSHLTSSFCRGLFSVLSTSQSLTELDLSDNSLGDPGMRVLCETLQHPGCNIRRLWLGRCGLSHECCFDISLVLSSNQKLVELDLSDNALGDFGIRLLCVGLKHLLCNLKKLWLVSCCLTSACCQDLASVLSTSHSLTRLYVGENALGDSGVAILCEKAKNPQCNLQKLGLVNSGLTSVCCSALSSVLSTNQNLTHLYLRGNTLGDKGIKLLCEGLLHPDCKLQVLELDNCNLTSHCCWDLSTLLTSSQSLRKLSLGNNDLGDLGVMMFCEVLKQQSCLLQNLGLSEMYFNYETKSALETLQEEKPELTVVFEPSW

| SMILES | IC50 [µM] |
| --- | --- |
| Cc1cc2c(c(Nc3nnc(S(C)(=O)=O)[nH]3)c1-c1ccnc(O[C@H]3CC[C@H](N(C)C)CC3)c1)CCC2 [Example 365, N-(5-(2-(((1r,4r)-4-(dimethylamino)cyclohexyl)oxy)pyridin-4-yl)-6-methyl-2,3-dihydro-1H-inden-4-yl)-5-(methylsulfonyl)-4H-1,2,4-triazol-3-amine] | ≤ 5 |
| CN1CC2(CCN(S(=O)(=O)c3nnc(Nc4c5c(cc6c4CCC6)CCC5)[nH]3)CC2)C1 [Example 280, N-(1,2,3,5,6,7-hexahydro-s-indacen-4-yl)-5-((2-methyl-2,7-diazaspiro[3.5]nonan-7-yl)sulfonyl)-4H-1,2,4-triazol-3-amine] | ≤ 5 |
| Cc1ccc(C(C)C)c(Nc2nnc(S(=O)(=O)N3CCC(N(C)C)CC3)[nH]2)c1 [Example 206, 1-((5-((2-isopropyl-5-methylphenyl)amino)-4H-1,2,4-triazol-3-yl)sulfonyl)-N,N-dimethylpiperidin-4-amine] | ≤ 10 |
| COc1cc(-c2cc(C#N)c3c(c2Nc2nnc(S(=O)(=O)N4CCC(N(C)C)CC4)[nH]2)CCC3)ccn1 [Example 230, 7-((5-((4-(dimethylamino)piperidin-1-yl)sulfonyl)-4H-1,2,4-triazol-3-yl)amino)-6-(2-methoxypyridin-4-yl)-2,3-dihydro-1H-indene-4-carbonitrile] | ≤ 5 |
| COc1cc(-c2cc(F)cc(C(C)C)c2Oc2nnc(S(=O)(=O)N3CCC(N(C)C)CC3)[nH]2)ccn1 [Example 253, 1-((5-(4-fluoro-2-isopropyl-6-(2-methoxypyridin-4-yl)phenoxy)-4H-1,2,4-triazol-3-yl)sulfonyl)-N,N-dimethylpiperidin-4-amine] | ≤ 5 |
| O=S(=O)(c1ccn(CCO)n1)c1nnc(Nc2c3c(cc4c2CCC4)CCC3)[nH]1 [Example 334, 2-(3-((5-((1,2,3,5,6,7-hexahydro-s-indacen-4-yl)amino)-4H-1,2,4-triazol-3-yl)sulfonyl)-1H-pyrazol-1-yl)ethanol] | ≤ 1 |
| CCN(CC)CCCS(=O)(=O)c1nnc(Nc2c(-c3ccccc3)cc(F)c3c2CCC3)[nH]1 [Example 78, 5-((3-(diethylamino)propyl)sulfonyl)-N-(7-fluoro-5-phenyl-2,3-dihydro-1H-inden-4-yl)-4H-1,2,4-triazol-3-amine] | ≤ 10 |
| CN1CCC(NS(=O)(=O)c2nnc(Nc3c4c(cc5c3CCC5)CCC4)[nH]2)CC1 [Example 102, 5-((1,2,3,5,6,7-hexahydro-s-indacen-4-yl)amino)-N-(1-methylpiperidin-4-yl)-4H-1,2,4-triazole-3-sulfonamide] | ≤ 10 |
| COc1cc(-c2ccc3c(c2Cc2nnc(S(=O)(=O)N4CCC(CN(C)C)C4)[nH]2)CCC3)ccn1 (stereo not shown) [Example 160, 1-(1-((5-((5-(2-methoxypyridin-4-yl)-2,3-dihydro-1H-inden-4-yl)-methyl)-4H-1,2,4-triazol-3-yl)sulfonyl)pyrrolidin-3-yl)-N,N-dimethylmethanamine] | ≤ 5 |
| O=S(=O)(c1cncnc1)c1n[nH]c(Nc2c3c(cc4c2CCC4)CCC3)n1 [Example 169, N-(1,2,3,5,6,7-hexahydro-s-indacen-4-yl)-3-(pyrimidin-5-ylsulfonyl)-1H-1,2,4-triazol-5-amine] | ≤ 10 |
| CN(C)C(=O)Cn1cc(S(=O)(=O)c2nnc(Nc3c4c(cc5c3CCC5)CCC4)[nH]2)cn1 [Example 348, 2-(4-((5-((1,2,3,5,6,7-hexahydro-s-indacen-4-yl)amino)-4H-1,2,4-triazol-3-yl)sulfonyl)-1H-pyrazol-1-yl)-N,N-dimethylacetamide] | ≤ 5 |
| Cc1cc2c(c(Nc3nnc(S(C)(=O)=O)[nH]3)c1-c1ccnc(OCC3CCCN(C)C3)c1)CCC2 (stereo not shown) [Example 362, N-(6-methyl-5-(2-((1-methylpiperidin-3-yl)methoxy)pyridin-4-yl)-2,3-dihydro-1H-inden-4-yl)-5-(methylsulfonyl)-4H-1,2,4-triazol-3-amine] | ≤ 5 |
| CN1CCCC(CS(=O)(=O)c2nnc(Nc3c4c(cc5c3CCC5)CCC4)[nH]2)C1 (stereo not shown) [Example 58, N-(1,2,3,5,6,7-hexahydro-s-indacen-4-yl)-3-(((1-methylpiperidin-3-yl)methyl)sulfonyl)-1H-1,2,4-triazol-5-amine] | ≤ 5 |
| COc1cc(-c2c(C)cc3c(c2Nc2nnc(S(C)(=O)=O)[nH]2)CCC3)ccn1 [Example 312, N-(5-(2-methoxypyridin-4-yl)-6-methyl-2,3-dihydro-1H-inden-4-yl)-5-(methylsulfonyl)-4H-1,2,4-triazol-3-amine] | ≤ 5 |
| CN1CC2CCN(S(=O)(=O)c3nnc(Nc4c5c(cc6c4CCC6)CCC5)[nH]3)C2C1 (stereo not shown) [Example 142, N-(1,2,3,5,6,7-hexahydro-s-indacen-4-yl)-5-((5-methylhexahydropyrrolo[3,4-b]pyrrol-1 (2H)-yl)sulfonyl)-4H-1,2,4-triazol-3-amine] | ≤ 5 |
| CS(=O)(=O)c1nnc(Nc2c3c(c(C#N)c4c2CCC4)CCC3)[nH]1 [Example 322, 8-((5-(methylsulfonyl)-4H-1,2,4-triazol-3-yl)amino)-1,2,3,5,6,7-hexahydro-s-indacene-4-carbonitrile] | ≤ 5 |

| SMILES | IC50 [µM] |
| --- | --- |
| O=C1CCC(CNS(=O)(=O)c2nnc(Nc3c4c(cc5c3CCC5)CCC4)[nH]2)N1 (stereo not shown) [Example 121, 5-((1,2,3,5,6,7-hexahydro-s-indacen-4-yl)amino)-N-((5-oxopyrrolidin-2-yl)methyl)-4H-1,2,4-triazole-3-sulfonamide] | ≤ 10 |
| CN1CCN(CCCS(=O)(=O)c2nnc(Nc3c4c(cc5c3CCC5)CCC4)[nH]2)CC1 [Example 51, N-(1,2,3,5,6,7-hexahydro-s-indacen-4-yl)-5-((3-(4-methylpiperazin-1-yl)propyl)sulfonyl)-4H-1,2,4-triazol-3-amine] | ≤ 5 |
| CN1CCC(CN(C)CCCS(=O)(=O)c2nnc(Nc3c4c(cc5c3CCC5)CCC4)[nH]2)CC1 [Example 53, N-(1,2,3,5,6,7-hexahydro-s-indacen-4-yl)-5-((3-(methyl((1-methylpiperidin-4-yl)methyl)amino)propyl)sulfonyl)-4H-1,2,4-triazol-3-amine] | ≤ 5 |
| O=S(=O)(NCCN1CCOCC1)c1nnc(Nc2c3c(cc4c2CCC4)CCC3)[nH]1 [Example 129, 5-((1,2,3,5,6,7-hexahydro-s-indacen-4-yl)amino)-N-(2-morpholinoethyl)-4H-1,2,4-triazole-3-sulfonamide] | ≤ 5 |
| CN1CCN(S(=O)(=O)c2nnc(Nc3c4c(cc5c3CCC5)CCC4)[nH]2)CC1 [Example 100, N-(1,2,3,5,6,7-hexahydro-s-indacen-4-yl)-5-((4-methylpiperazin-1-yl)sulfonyl)-4H-1,2,4-triazol-3-amine] | ≤ 5 |
| COC(C)(C)C1CCN(S(=O)(=O)c2nnc(Nc3c4c(cc5c3CCC5)CCC4)[nH]2)C1 (stereo not shown) [Example 282, N-(1,2,3,5,6,7-hexahydro-s-indacen-4-yl)-5-((3-(2-methoxypropan-2-yl)pyrrolidin-1-yl)sulfonyl)-4H-1,2,4-triazol-3-amine] | ≤ 5 |
| CN1CC(CNS(=O)(=O)c2nnc(Nc3c4c(cc5c3CCC5)CCC4)[nH]2)C1 [Example 88, 5-((1,2,3,5,6,7-hexahydro-s-indacen-4-yl)amino)-N-((1-methazetidin-3-yl)methyl)-4H-1,2,4-triazole-3-sulfonamide] | ≤ 5 |
| N#Cc1c2c(c(Nc3nnc(S(=O)(=O)c4ccccc4)[nH]3)c3c1CCC3)CCC2 [Example 323, 8-((5-(phenylsulfonyl)-4H-1,2,4-triazol-3-yl)amino)-1,2,3,5,6,7-hexahydro-5-indacene-4-carbonitrile] | ≤ 5 |
| COc1cc(-c2c(C)cccc2Nc2nnc(S(=O)(=O)N3CCC(N(C)C)CC3)[nH]2)ccn1 [Example 208, 1-((5-((2-(2-methoxypyridin-4-yl)-3-methylphenyl)amino)-4H-1,2,4-triazol-3-yl)sulfonyl)-N,N-dimethylpiperidin-4-amine] | ≤ 10 |
| O=S(=O)(c1nnc(Nc2c3c(cc4c2CCC4)CCC3)[nH]1)C1CCOCC1 [Example 157, N-(1,2,3,5,6,7-hexahydro-s-indacen-4-yl)-5-((tetrahydro-2H-pyran-4-yl)sulfonyl)-4H-1,2,4-triazol-3-amine] | ≤ 10 |
| Cc1cc2c(c(Nc3nnc(S(C)(=O)=O)[nH]3)c1-c1ccnc(OC3CCOCC3)c1)CCC2 [Example 364, N-(6-methyl-5-(2-((tetrahydro-2H-pyran-4-yl)oxy)pyridin-4-yl)-2,3-dihydro-1H-inden-4-yl)-5-(methylsulfonyl)-4H-1,2,4-triazol-3-amine] | ≤ 5 |
| O=S(=O)(c1nnc(Nc2c3c(cc4c2CCC4)CCC3)[nH]1)N1CC2(CCN(CC(F)(F)F)C2)C1 [Example 263, N-(1,2,3,5,6,7-hexahydro-s-indacen-4-yl)-5-((6-(2,2,2-trifluoroethyl)-2,6-diazaspiro[3.4]octan-2-yl)sulfonyl)-4H-1,2,4-triazol-3-amine] | ≤ 5 |
| O=S(=O)(c1ccc(F)cc1)c1nnc(Nc2c3c(cc4c2CCC4)CCC3)[nH]1 [Example 181, 5-((4-fluorophenyl)sulfonyl)-N-(1,2,3,5,6,7-hexahydro-s-indacen-4-yl)-4H-1,2,4-triazol-3-amine] | ≤ 5 |
| COCC(C)Oc1cc(-c2ccc3c(c2Nc2nnc(S(C)(=O)=O)[nH]2)CCC3)ccn1 (stereo not shown) [Example 237, N-(5-(2-((1-methoxypropan-2-yl)oxy)pyridin-4-yl)-2,3-dihydro-1H-inden-4-yl)-5-(methylsulfonyl)-4H-1,2,4-triazol-3-amine] | ≤ 5 |
| CN(C)CCn1cc(S(=O)(=O)c2nnc(Nc3c4c(cc5c3CCC5)CCC4)[nH]2)cn1 [Example 350, 5-((1-(2-(dimethylamino)ethyl)-1H-pyrazol-4-yl)sulfonyl)-N-(1,2,3,5,6,7-hexahydro-s-indacen-4-yl)-4H-1,2,4-triazol-3-amine] | ≤ 1 |
